Laboratory results as given in patent publication US20250281453A1, “COMBINATION THERAPIES COMPRISING QTX125” (QUIMATRYX, S.L., priority 2022, published 2025).

Tests used:
[1] = tested on: multiple sclerosis mice models; conditions: two different multiple sclerosis mice models; cited from earlier work
[2] = tested on: Hep-G2 hepatic cancer cells; test: QTX125-containing combination therapy, hexosaminidase cell viability; type: cell-based; conditions: for combination index (C.I): Hep-G2; for EC50: Homo sapiens, HepG2, Hep-G2
Experimental: (§1) To assess the oncolytic efficacy of QTX125-containing combination therapies in vitro, colonic, pancreatic, hepatic and ovarian tumour cells were administered sorafenib, gemcitabine or bortezomib at EC25, EC50 and EC75 doses. QTX125 was co-administered in order to produce a dose response curve.
(§2) To prepare cells for viability assays, cells were transferred into 96 well tissue culture plates (Cultek), and resuspended in 100 µL at the following densities: 10,000 cells/well (Hep-G2 and MiaPaCa-2), 5000 cells/well (Panc-1 and SK-OV-3) or 3000 cells/well (HCT-116). Following 24 hours of incubation, media was removed and replaced with 100 µL media spiked with QTX125 and the test chemotherapeutic agents. Stock solutions for the agents used in this study are shown below in Table 1. Cells were incubated for a further 72 hours before cell viability was assessed using both ALAMAR® and hexosaminidase assays.
(§3) For the hexosaminidase assay, media containing QTX125 and the test chemotherapeutic agents was removed, and cells were washed once with PBS. 60 μL of substrate solution (containing: 7.5 mM p-nitrophenol-N-acetyl-beta-D-glucosamide [Sigma N-9376], 0.1 M sodium citrate, pH 5.0 and 0.25% Triton X-100) was added to each well and cells were incubated at 37° C. for at least 1 hour. Incubating cells in this manner causes the substrate solution to become bright yellow, at which point 90 μL of developer solution (containing 50 mM Glycine pH 10.4 and 5 mM EDTA) was added to each well. Absorbance at 410 nm was recorded using a plate reader.
(§4) Control values were normalised to 100% and percentage (%) viability was calculated. Data were used to plot log dose-response curves using a sigmoid dose-response (variable slope) equation. EC50 values were obtained using Equation 1, where ‘X’ is the logarithmic concentration; ‘Y’ is the response output and it is assumed that Y starts at bottom of the graph and reaches the top with an overall sigmoid shape.
(§5) Cls were obtained using Equation 2, where (Dm) 1 is the ECx concentration of QTX125 and (D) 1 is the ECx concentration of QTX125 in the presence of sorafenib, gemcitabine or bortezomib.
(§6) In order to assess the oncolytic efficacy of QTX125-containing combination therapies, monotherapy EC25, EC50 and EC75 doses for sorafenib, gemcitabine and bortezomib were calculated (as per Experiment 3) and administered to wells at these fixed concentrations. QTX125 was co-administered at a range of concentrations, in order to plot a dose-response curve such that the EC50 dose of QTX125 could be calculated in the presence of sorafenib/gemcitabine/bortezomib. QTX125 was administered to cells at a starting high-dose, and a 1:1 dilution was completed thereafter. In this part of the study, only the hexosaminidase assay was employed to assess cell viability following treatment with QTX125-containing combination therapies.
(§7) It should be noted that it was not possible to determine the appropriate concentrations for gemcitabine in all cell lines tested. In cells resistant to gemcitabine, nominal concentrations were used in place of EC25, EC50 and EC75 doses (e.g., nominal doses of 1, 10 and 100 µM were used in Panc-1 and Hep-G2 cells).

[3] = tested on: Panc-1 pancreatic cancer cells; test: as above; type: cell-based; conditions: for EC50: Homo sapiens, PANC-1, Panc-1; for combination index (C.I): Panc-1
Experimental: as §1, §2, §3, §4, §5, §6, §7

[4] = tested on: MiaPaCa-2 pancreatic cancer cells; test: as above; type: cell-based; conditions: for EC50: Homo sapiens, MIA PaCa-2, MiaPaCa-2; for combination index (C.I.): MiaPaCa-2
Experimental: as §1, §2, §3, §4, §5, §6, §7

[5] = tested on: SK-OV-3 ovarian cancer cells; test: as above; type: cell-based; conditions: for EC50: Homo sapiens, SK-OV-3, SK-Ov-3; for combination index (C.I): SK-Ov-3
Experimental: as §1, §2, §3, §4, §5, §6, §7

[6] = + bortezomib at EC25 dose (0.014 μM)
[7] = + bortezomib at EC50 dose (0.016 μM)
[8] = + bortezomib at EC75 dose (0.026 μM)
[9] = + gemcitabine at EC25, nominal dose 1 μM
[10] = + gemcitabine at EC50, nominal dose 10 μM
[11] = + gemcitabine at EC75, nominal dose 100 μM
[12] = + sorafenib at EC25 dose (0.9 μM)
[13] = + sorafenib at EC50 dose (2.5 μM)
[14] = + sorafenib at EC75 dose (6.4 μM)
[15] = + bortezomib at EC25 dose (0.007 μM)
[16] = + bortezomib at EC50 dose (0.009 μM)
[17] = + bortezomib at EC75 dose (0.015 μM)
[18] = + sorafenib at EC25 dose (4.1 μM)
[19] = + sorafenib at EC50 dose (7.4 μM)
[20] = + sorafenib at EC75 dose (15 μM)
[21] = + bortezomib at EC75 dose (0.014 μM)
[22] = + gemcitabine at EC25 dose (0.01 μM)
[23] = + gemcitabine at EC50 dose (0.1 μM)
[24] = + gemcitabine at EC75 dose (1 μM)
[25] = + sorafenib at EC25 dose (4.2 μM)
[26] = + sorafenib at EC50 dose (6.8 μM)
[27] = + sorafenib at EC75 dose (10.3 μM)
[28] = + bortezomib at EC25 dose (0.006 μM)
[29] = + bortezomib at EC50 dose (0.007 μM)
[30] = + bortezomib at EC75 dose (0.012 μM)
[31] = + gemcitabine at EC25 dose (0.1 μM)
[32] = + gemcitabine at EC50 dose (0.25 μM)
[33] = + gemcitabine at EC75 dose (0.5 μM)
[34] = + sorafenib at EC25 dose (9.1 μM)
[35] = + sorafenib at EC50 dose (12.7 μM)
[36] = + sorafenib at EC75 dose (21.6 μM)

O=C(NO)c1ccc(CNC(=O)c2[nH]c(-c3ccc(O)cc3)cc2-c2ccoc2)cc1 [QTX125, 3-(3-Furyl)-N-{4-[(hydroxyamino)carbonyl]benzyl}-5-(4-hydroxyphenyl)-1 Hpyrrole-2-carboxamide]
efficacy in multiple sclerosis mice models [1]: high efficacy | combination index (C.I) [2, 6]: 0.4 arbitrary units | combination index (C.I) [2, 7]: 0.2 arbitrary units | combination index (C.I) [2, 8]: 0.2 arbitrary units | combination index (C.I) [2, 9]: 0.6 arbitrary units | combination index (C.I) [2, 10]: 0.2 arbitrary units | combination index (C.I) [2, 11]: 0.05 arbitrary units | combination index (C.I) [2, 12]: 0.5 arbitrary units | combination index (C.I) [2, 13]: 0.4 arbitrary units | combination index (C.I) [2, 14]: 0.5 arbitrary units | EC50 [2, 6]: 237 nM | EC50 [2, 7]: 128 nM | EC50 [2, 8]: 91 nM | EC50 [2, 9]: 744 nM | EC50 [2, 10]: 198 nM | EC50 [2, 11]: 56.1 nM | EC50 [2, 12]: 87.9 nM | EC50 [2, 13]: 74.9 nM | EC50 [2, 14]: 87.2 nM | EC50 ([2]; no second agent (control of Table 5.3.1)): 189 nM | EC50 ([2]; no second agent (control of Table 5.3.2)): 1200 nM | EC50 ([2]; no second agent (control of Table 5.3.3)): 544 nM | EC50 [3, 15]: 5030 nM | EC50 [3, 16]: 5480 nM | EC50 [3, 17]: 1460 nM | EC50 [3, 9]: 4110 nM | EC50 [3, 10]: 2470 nM | EC50 [3, 11]: 1940 nM | EC50 [3, 18]: 13700 nM | EC50 [3, 19]: 14300 nM | EC50 [3, 20]: 2980 nM | EC50 ([3]; no second agent (control of Table 5.5.1)): 10200 nM | EC50 ([3]; no second agent (control of Table 5.5.2)): 14700 nM | EC50 ([3]; no second agent (control of Table 5.5.3)): 18200 nM | combination index (C.I) [3, 15]: 0.3 arbitrary units | combination index (C.I) [3, 16]: 0.3 arbitrary units | combination index (C.I) [3, 17]: 0.1 arbitrary units | combination index (C.I) [3, 9]: 0.3 arbitrary units | combination index (C.I) [3, 10]: 0.2 arbitrary units | combination index (C.I) [3, 11]: 0.1 arbitrary units | combination index (C.I) [3, 18]: 1.3 arbitrary units | combination index (C.I) [3, 19]: 1.4 arbitrary units | combination index (C.I) [3, 20]: 0.3 arbitrary units | EC50 [4, 15]: 239 nM | EC50 [4, 16]: 239 nM | EC50 [4, 21]: 246 nM | EC50 [4, 22]: 133 nM | EC50 [4, 23]: 112 nM | EC50 [4, 24]: 45.6 nM | EC50 [4, 25]: 258 nM | EC50 [4, 26]: 279 nM | EC50 [4, 27]: 260 nM | EC50 ([4]; no second agent (control of Table 5.2.1)): 214 nM | EC50 ([4]; no second agent (control of Table 5.2.2)): 146 nM | EC50 ([4]; no second agent (control of Table 5.2.3)): 230 nM | combination index (C.I.) [4, 15]: 1.0 arbitrary units | combination index (C.I.) [4, 16]: 1.0 arbitrary units | combination index (C.I.) [4, 21]: 1.1 arbitrary units | combination index (C.I.) [4, 22]: 0.9 arbitrary units | combination index (C.I.) [4, 23]: 0.8 arbitrary units | combination index (C.I.) [4, 24]: 0.3 arbitrary units | combination index (C.I.) [4, 25]: 1.2 arbitrary units | combination index (C.I.) [4, 26]: 1.3 arbitrary units | combination index (C.I.) [4, 27]: 1.2 arbitrary units | EC50 [5, 28]: 532 nM | EC50 [5, 29]: 580 nM | EC50 [5, 30]: 262 nM | EC50 [5, 31]: 171 nM | EC50 [5, 32]: 303 nM | EC50 [5, 33]: 139 nM | EC50 [5, 34]: 389 nM | EC50 [5, 35]: 657 nM | EC50 [5, 36]: 406 nM | EC50 ([5]; no second agent (control of Table 5.4.1)): 623 nM | EC50 ([5]; no second agent (control of Table 5.4.2)): 282 nM | EC50 ([5]; no second agent (control of Table 5.4.3)): 633 nM | combination index (C.I) [5, 28]: 0.8 arbitrary units | combination index (C.I) [5, 29]: 0.9 arbitrary units | combination index (C.I) [5, 30]: 0.4 arbitrary units | combination index (C.I) [5, 31]: 0.6 arbitrary units | combination index (C.I) [5, 32]: 1.1 arbitrary units | combination index (C.I) [5, 33]: 0.5 arbitrary units | combination index (C.I) [5, 34]: 0.6 arbitrary units | combination index (C.I) [5, 35]: 1.1 arbitrary units | combination index (C.I) [5, 36]: 0.7 arbitrary units
